Here are results for eight compounds from patent US10730884B2, “Substituted indole compound derivatives as dengue viral replication inhibitors” (Janssen Pharmaceuticals, Inc., priority 2016, dated 2020).

Data set [1] is described as follows: in vitro. The conditions noted are these: African green monkey.
In data set [2] the test system is DENV-2 16681 strain. The data set can be described thus: DENV-2 antiviral assay (eGFP-labeled virus, Vero cells). Format: cell-based, Dengue virus. Particulars: for EC50: DENV-2 16681 eGFP, Vero cells, MOI 0.5, 3 days; for SI: SI=CC50/EC50, DENV-2 antiviral assay. The method, then: The antiviral activity of all the compounds of the invention was tested against the DENV-2 16681 strain which was labeled with enhanced green fluorescent protein (eGPF). The culture medium consists of minimal essential medium supplemented with 2% of heat-inactivated fetal calf serum, 0.04% gentamycin (50 mg/mL) and 2 mM of L-glutamine. Vero cells, obtained from ECACC, were suspended in culture medium and 25 μL was added to 384-well plates (2500 cells/well), which already contain the antiviral compounds. Typically, these plates contain a 5-fold serial dilution of 9 dilution steps of the test compound at 200 times the final concentration in 100% DMSO (200 nL). […] Finally, each plate contains wells which are assigned as virus controls (containing cells and virus in the absence of compound), cell controls (containing cells in the absence of virus and compound) and medium controls (containing medium in the absence of cells, virus and compounds). To the wells assigned as medium control, 25 μL of culture medium was added instead of Vero cells. Once the cells were added to the plates, the plates were incubated for 30 minutes at room temperature to allow the cells to distribute evenly within the wells. Next, the plates were incubated in a fully humidified incubator (37° C., 5% CO2) until the next day. Then, DENV-2 strain 16681, labeled with eGFP, was added at a multiplicity of infection (MOI) of 0.5. Therefore, 15 μL of virus suspension was added to all the wells containing test compound and to the wells assigned as virus control. In parallel, 15 μL of culture medium was added to the medium and cell controls. Next, the plates were incubated for 3 days in a fully humidified incubator (37° C., 5% CO2). At the day of the read out, the eGFP fluorescence was measured using an automated fluorescence microscope at 488 nm (blue laser). Using an in-house LIMS system, inhibition dose response curves for each compound were calculated and the half maximal effective concentration (EC50) was determined. Therefore, the percent inhibition (I) for every test concentration is calculated using the following formula: I=100*([…])/(SVC−SCC); ST, SCC and SVC are the amount of eGFP signal in the test compound, cell control and virus control wells, respectively. The EC50 represents the concentration of a compound at which the virus replication is inhibited with 50%, as measured by a 50% reduction of the eGFP fluorescent intensity compared to the virus control. The EC50 is calculated using linear interpolation (Table 1).

Data set [3] has as its system DENV-2 strain 16681. The data set can be described thus: Tetravalent RT-qPCR assay, serotype 2. Format: cell-based, Dengue virus. Particulars: for EC50: Dengue virus, DENV2, Vero, 72 h, RT-qPCR serotype 2 16681, Protocol A, Vero cells, day 3; for SI: RT-qPCR serotype 2 16681. The method, then: (§1) The antiviral activity of the compounds of the invention was tested against DENV-1 strain TC974#666 (NCPV), DENV-2 strain 16681, DENV-3 strain H87 (NCPV) and DENV-4 strain H241 (NCPV) in a RT-qPCR assay. Therefore, Vero cells were infected with either DENV-1, or -2, or -3, or -4 in the presence or absence of test compounds. At day 3 post-infection, the cells were lysed and cell lysates were used to prepare cDNA of both a viral target (the 3′UTR of DENV; Table 2) and a cellular reference gene (β-actin, Table 2). Subsequently, a duplex real time PCR was performed on a Lightcycler480 instrument. The generated Cp value is inversely proportional to the amount of RNA expression of these targets. Inhibition of DENV replication by a test compound result in a shift of Cp's for the 3′UTR gene. On the other hand, if a test compound is toxic to the cells, a similar effect on β-actin expression will be observed. The comparative ΔΔCp method is used to calculate EC50, which is based on the relative gene expression of the target gene (3′UTR) normalized with the cellular housekeeping gene (β-actin). In addition, CC50 values are determined based on the Cp values acquired for the housekeeping gene β-actin.
(§2) The culture medium consisted of minimal essential medium supplemented with 2% of heat-inactivated fetal calf serum, 0.04% gentamycin (50 mg/mL) and 2 mM of L-glutamine. Vero cells, obtained from ECACC, were suspended in culture medium and 75 μL/well was added in 96-well plates (10000 cells/well), which already contain the antiviral compounds. […] In addition, each plate contains wells which are assigned as virus controls (containing cells and virus in the absence of compound) and cell controls (containing cells in the absence of virus and compound). Once the cells were added in the plates, the plates were incubated in a fully humidified incubator (37° C., 5% CO2) until the next day. Dengue viruses serotype-1, 2, 3 and 4 were diluted in order to obtain a Cp of ˜22-24 in the assay. Therefore, 25 μL of virus suspension was added to all the wells containing test compound and to the wells assigned as virus control. In parallel, 25 μL of culture medium was added to the cell controls. Next, the plates were incubated for 3 days in a fully humidified incubator (37° C., 5% CO2). After 3 days, the supernatant was removed from the wells and the cells were washed twice with ice-cold PBS (˜100 μL). The cell pellets within the 96-well plates were stored at −80° C. for at least 1 day. Next, RNA was extracted using the Cells-to-CT™ lysis kit, according to the manufacturer's guideline (Life Technologies). The cell lysates can be stored at −80° C. or immediately used in the reverse transcription step.
(§3) In preparation of the reverse transcription step, mix A (table 3A) was prepared and 7.57 μL/well was dispensed in a 96-well plate. After addition of 5 μL of the cell lysates, a five minute denaturation step at 75° C. was performed (table 3B). Afterwards, 7.43 μL of mix B was added (table 3C) and the reverse transcription step was initiated (table 3D) to generate cDNA.
(§4) Finally, a RT-qPCR mix was prepared, mix C (table 4A), and 22.02 μL/well was dispensed in 96-well LightCycler qPCR plates to which 3 μL of cDNA was added and the qPCR was performed according to the conditions in table 4B on a LightCycler 480.
(§5) Using the LightCycler software and an in-house LIMS system, dose response curves for each compound were calculated and the half maximal effective concentration (EC50) and the half maximal cytotoxic concentration (CC50) were determined (Tables 5-8).
On the technique in general: In qPCR the cycle at which signal appears reflects the starting amount.

Data set [4] deals with Vero cells. The conditions noted are these: African green monkey.
The nature of data set [5]: in vitro. The data set is classed as cell-based. Particulars: African green monkey, CC50. On the procedure:
as §1, §2, §5

The test system of data set [6] is DENV-1 strain TC974#666. The data set can be described thus: Tetravalent RT-qPCR assay, serotype 1. Format: cell-based, Dengue virus. The conditions noted are these: for EC50: Dengue virus, DENV1, Vero, 72 h, RT-qPCR serotype 1 TC974#666, Protocol A, Vero cells, day 3; for SI: RT-qPCR serotype 1 TC974#666. The method, then:
as §1, §2, §3, §4, §5

The test system of data set [7] is DENV-3 strain H87. The data set can be described thus: Tetravalent RT-qPCR assay, serotype 3. Format: cell-based, Dengue virus. Particulars: for EC50: Dengue virus, DENV3, Vero, 72 h, RT-qPCR serotype 3 H87, Protocol A, Vero cells, day 3; for SI: RT-qPCR serotype 3 H87. On the procedure:
as §1, §2, §3, §4, §5

In data set [8] the test system is DENV-4 strain H241. Description: Tetravalent RT-qPCR assay, serotype 4. Format: cell-based, Dengue virus. The conditions noted are these: for EC50: Dengue virus, DENV4, Vero, 72 h, RT-qPCR serotype 4 H241, Protocol A, Vero cells, day 3; for SI: RT-qPCR serotype 4 H241. The method, then:
as §1, §2, §3, §4, §5

The structures appear in SMILES notation. Where two headings read alike, the source gives them in different places.

On to `COc1cc(NC(C(=O)c2c[nH]c3c(C)cc(Cl)cc23)c2ccc(F)cc2OC)cc(OCCO)c1` (racemic) [Compound 1, 1-(5-chloro-7-methyl-1H-indol-3-yl)-2-(4-fluoro-2-methoxyphenyl)-2-((3-(2-hydroxyethoxy)-5-methoxyphenyl)amino)ethanone], for which the melting point is 118 °C. In addition, in data set [1], the CC50 worked out at 4900 nM. In addition, in data set [2] (Dengue virus, DENV2, Vero, 72 h), a half-maximal response (EC50) required 2.7 nM. In data set [2], this compound displayed an SI of 1800.

On to `COc1cc(NC(C(=O)c2c[nH]c3c(C)cc(Cl)cc23)c2ccc(F)cc2OC)cc(OCCO)c1` (single isomer, unassigned) [Compound 1A], for which the EC50 in [3] came to 3.2 nM; in [2], 1.7 nM; in data set [6] (read-out: EC50) it was 6.2 nM; in data set [7] (read-out: EC50), 39 nM; in data set [8] it was 220 nM. The SI in data set [3] was 1080; in data set [2] it was 2070; in data set [6] it was 461; in data set [7], 49; in data set [8] it was 8.7. Besides, the CC50 in data set [4] stood at 3600 nM. The CC50 at 3 days in data set [5] came out at 2900 nM.

Consider `COc1cc(NC(C(=O)c2c[nH]c3cc(OC)c(Cl)cc23)c2ccc(F)cc2OC)cc(OCCO)c1` (single isomer, unassigned) [Compound 2A], for which the EC50 in data set [3] was 1 nM; in data set [2] it was 0.71 nM; in [6] (read-out: EC50) it was 9.2 nM; in [7] (read-out: EC50), 34 nM; in data set [8], 230 nM. Besides, the SI in [3] came out at 3350; in data set [2], 6340; in data set [6], 350; in data set [7], 90; in data set [8] it was 9.1. Also, the CC50 in [4] amounted to 4500 nM. In [5], this compound gave a CC50 at 3 days of 2900 nM.

With `COc1cc(NC(C(=O)c2c[nH]c3cc(OC(F)(F)F)c(C)cc23)c2ccc(F)cc2OC)cc(OCCO)c1` (single isomer, unassigned) [Compound 4B], the EC50 is 6.6 nM in data set [3]; 8.1 nM in [2]; 24 nM in data set [6] (read-out: EC50); 120 nM in data set [7] (read-out: EC50); 300 nM in data set [8]. Further, the SI turned out to be 553 in data set [3]; 409 in data set [2]; 128 in [6]; 16 in [7]; 8.1 in data set [8]. In addition, in data set [4], the CC50 was 3300 nM. Moreover, the CC50 at 3 days in data set [5] was 3800 nM.

Consider `COc1cc(NC(C(=O)c2c[nH]c3ccc(C)cc23)c2ccc(F)cc2OC)cc(OCCO)c1` (single isomer, unassigned) [Compound 5A], for which the EC50 in data set [3] was 2.7 nM; in data set [2] it was 2.5 nM; in data set [6] (read-out: EC50) it was 7 nM; in data set [7] (read-out: EC50) it was 50 nM; in data set [8] it was 270 nM. Also, the SI worked out at 4290 in [3]; 2910 in data set [2]; 1430 in [6]; 207 in [7]; 21 in data set [8]. In [1], this compound displayed a CC50 of 5800 nM. For the same compound, the CC50 at 3 days in data set [5] amounted to 10000 nM.

Take `COc1cc(NC(C(=O)c2c[nH]c3cc(F)c(C)cc23)c2ccc(Cl)cc2OC)cc(OCCO)c1` (single isomer, unassigned) [Compound 9B]: the EC50 in [3] turned out to be 0.69 nM; in data set [2] it was 0.44 nM; in data set [6] (read-out: EC50), 1.4 nM; in data set [7] (read-out: EC50), 16 nM; in [8] it was 92 nM. Moreover, the SI worked out at 5540 in [3]; 7480 in [2]; 1700 in data set [6]; 234 in data set [7]; 28 in [8]. The compound also gave a CC50 at 3 days in data set [5] of 3000 nM.

In the case of `[2H]C(Nc1cc(OC)cc(OCCO)c1)(C(=O)c1c[nH]c2cc(OC)c(C)cc12)c1ccc(Cl)cc1OC` (single isomer, unassigned) [Compound 14A-D], the EC50 in data set [3] came to 0.29 nM; in [2], 0.26 nM; in data set [6] it was 3 nM; in [7], 9.8 nM; in data set [8], 74 nM. The SI is reported as more than 11900 in [3]; 17600 in [2]; 1070 in data set [6]; more than 261 in [7]; more than 46 in data set [8]. This compound came in with a CC50 in [1] of 3600 nM. Also, in [5], the CC50 at 3 days is more than 2300 nM.

As to `COc1cc(NC(C(=O)c2c[nH]c3ccc(S(F)(F)(F)(F)F)cc23)c2ccc(Cl)cc2OC)cc(OCCO)c1` (single isomer, unassigned) [Compound 15A], the EC50 in data set [3] turned out to be 0.11 nM; in data set [2] it was 0.17 nM; in data set [6] (read-out: EC50), 0.13 nM; in data set [7] (read-out: EC50), 4.4 nM; in data set [8] it was 14 nM. In addition, the SI amounted to 21200 in data set [3]; 16000 in data set [2]; 16100 in [6]; 361 in data set [7]; 84 in data set [8]. This compound yielded a CC50 in data set [4] of 2700 nM.

One may read the melting point as the temperature of the solid-liquid transition. For orientation: EC50 means the concentration needed to bring the measured effect to its halfway point.
